The record followed here is patent US10086039B2, “Lamin A, an activator of longevity/anti-aging SIRT1 protein” (THE UNIVERSITY OF HONG KONG, priority 2012, dated 2018).

The test system of one experiment is NM-associated SIRT1. Briefly: NM association of SIRT1 in BMSCs (subcellular fractionation, Western blotting). Conditions: wild-type and Zmpste24−/− BMSCs, different concentrations, compared to untreated controls. Format: cell-based, mouse. The method, then:
Cells were fractionated as described (Mendez and Stillman, 2000). Briefly, the cells were suspended in 100 μl ice-cold buffer A (10 mM HEPES, pH 7.9, 10 mM KCl, 1.5 mM MgCl2, 0.34 M sucrose, 10% glycerol, 1 mM DTT, protease inhibitors). After the addition of 0.1% Triton X-100, the cell suspension was mixed gently, incubated on ice for 5 min and centrifuged at 1300×g at 4° C. for 4 min. The supernatant (S1) was transferred to a new tube and clarified by high-speed centrifugation (12000×g, 10 min, 4° C.). The remaining nuclei pellet (P1) was washed once with 100 μl buffer A and then resuspended in 100 μl buffer A supplemented with 1 mM CaCl2 and 2 units of micrococcal nuclease, and incubated at 37° C. for 15 min. The reaction was stopped by adding 1 mM EGTA and the suspension was then centrifuged at 1300×g at 4° C. for 4 min. The resultant pellet was resuspended in 100 μl of buffer B (3 mM EDTA, 0.2 mM EGTA, 1 mM DTT) and centrifuged at 1700×g at 4° C. for 4 min. […]
Western blotting was performed as described previously (Liu et al., 2005). Relative band intensity was measured by IMAGE J® and normalized to corresponding wild-type or untreated controls as indicated. […]
On the technique in general: In western blotting, separated proteins are transferred to a membrane and probed.

Experiment [1] deals with T1, rhSIRT1 binding to rhLamin A (Homo sapiens, UniProt Q96EB6).
T1 construct: purchased Diatheva, Italy (rhLamin A)
T1 sequence (Q96EB6 1-747): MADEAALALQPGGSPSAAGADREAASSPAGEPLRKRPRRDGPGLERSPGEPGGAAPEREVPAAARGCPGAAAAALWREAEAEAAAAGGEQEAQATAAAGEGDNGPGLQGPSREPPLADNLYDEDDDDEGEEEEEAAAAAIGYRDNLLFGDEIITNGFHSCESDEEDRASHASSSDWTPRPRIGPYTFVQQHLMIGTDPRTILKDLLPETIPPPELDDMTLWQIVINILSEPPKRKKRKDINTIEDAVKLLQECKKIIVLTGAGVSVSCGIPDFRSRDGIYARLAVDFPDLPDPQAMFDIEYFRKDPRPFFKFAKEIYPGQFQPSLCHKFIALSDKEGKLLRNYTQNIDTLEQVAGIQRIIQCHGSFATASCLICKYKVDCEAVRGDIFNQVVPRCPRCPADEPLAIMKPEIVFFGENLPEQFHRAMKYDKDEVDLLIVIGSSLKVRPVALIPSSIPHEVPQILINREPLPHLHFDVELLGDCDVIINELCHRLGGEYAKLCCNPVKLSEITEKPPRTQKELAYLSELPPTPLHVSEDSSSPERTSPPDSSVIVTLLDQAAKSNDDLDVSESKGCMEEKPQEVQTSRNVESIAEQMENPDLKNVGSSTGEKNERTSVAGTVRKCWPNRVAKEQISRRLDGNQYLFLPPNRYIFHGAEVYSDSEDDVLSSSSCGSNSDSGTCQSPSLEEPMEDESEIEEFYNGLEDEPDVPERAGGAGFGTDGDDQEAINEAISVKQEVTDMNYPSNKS
T1 sequence (P02545 1-664 partner): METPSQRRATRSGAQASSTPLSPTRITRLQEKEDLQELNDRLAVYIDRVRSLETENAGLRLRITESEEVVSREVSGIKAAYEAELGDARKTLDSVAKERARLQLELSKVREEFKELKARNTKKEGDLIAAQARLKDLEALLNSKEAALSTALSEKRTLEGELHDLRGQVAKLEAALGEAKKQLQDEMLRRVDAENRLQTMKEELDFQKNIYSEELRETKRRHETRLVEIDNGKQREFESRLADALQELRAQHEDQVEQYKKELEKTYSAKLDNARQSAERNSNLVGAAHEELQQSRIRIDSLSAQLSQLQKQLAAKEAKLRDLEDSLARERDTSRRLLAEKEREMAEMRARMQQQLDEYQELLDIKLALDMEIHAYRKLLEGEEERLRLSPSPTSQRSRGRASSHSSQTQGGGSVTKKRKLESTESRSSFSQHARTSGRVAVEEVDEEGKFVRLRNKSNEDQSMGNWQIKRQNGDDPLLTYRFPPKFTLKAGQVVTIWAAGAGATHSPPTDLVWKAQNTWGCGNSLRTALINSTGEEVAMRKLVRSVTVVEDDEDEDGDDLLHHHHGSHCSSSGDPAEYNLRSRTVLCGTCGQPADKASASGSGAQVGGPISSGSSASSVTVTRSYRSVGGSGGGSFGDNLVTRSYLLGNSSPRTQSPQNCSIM
In words: Pull-down of rhSIRT1 with rhLamin A in test tube (anti-lamin A immunoprecipitation). The following applies: in the test tube, co-immunoprecipitation. The method, then:
For co-immunoprecipitation, cells were lysed into pre-chilled RIPA buffer containing 300 mM or 500 mM NaCl and protease inhibitors. Primary antibodies or appropriate control IgGs were added to the lysate and incubated for 2 h on a rocking platform at 4° C. before Agarose beads were added and incubated O/N. The beads were washed twice with RIPA buffer, resuspended into Laemmli buffer and boiled, and protein suspension was collected by centrifugation and stored for further analysis.
Consistently, ectopic EGFP-SIRT1 and DsRed-lamin A co-existed in the nuclear interior (FIG. 1D). This interaction seems specific to nuclear SIRT1 as neither cytoplasmic SIRT1 nor mitochondrial SIRT5 was detected in the anti GFP-lamin A immunoprecipitates (FIG. 6C). In addition, SIRT1 physically interacts with lamin A as recombinant human SIRT1 (rhSIRT1) was pulled down by recombinant human lamin A (rhLamin A) in a test tube (FIG. 1E).

`Oc1ccc(C=Cc2cc(O)cc(O)c2)cc1` [resveratrol]: the “NM-associated SIRT1” value in the experiment on NM-associated SIRT1 is reported as “increased”. In addition, the “binding of rhSIRT1 to rhLamin A” value in experiment [1] is “enhanced the binding”.
